{"source": "patent US9476099B2", "about": "(TRUSTEES OF DARTMOUTH COLLEGE, priority 2012, dated 2016)", "system": "NT2/D1-R1 control and DNMT3B knockdown cells", "test": "Genome-wide expression analysis with PAM clusters, control and DNMT3B knockdown cells (Tables 8-14)", "details": "sh-3B + aza; 10 nM decitabine, 3 days", "note": "“And” between values parts separate entries of the source, which are not always exact repeats. Equal values may be shown once."}
{"smiles": "Nc1ncn([C@H]2C[C@H](O)[C@@H](CO)O2)c(=O)n1", "note": "[aza]", "values": [{"measurement": "ADAMTSL2 NM_014694 expression Mean", "result": 202.775}, {"measurement": "ADM NM_001124 expression Mean", "result": 446.451}, {"measurement": "AFMID NM_0010109 expression Mean", "result": 172.091}, {"measurement": "AHNAK NM_001620 expression Mean", "result": 254.833}, {"measurement": "ANAPC13 NM_015391 expression Mean", "result": 377.446}, {"measurement": "ANXA1 NM_000700 expression Mean", "result": 394.045}, {"measurement": "ANXA2 NM_0010028 expression Mean", "result": 2283.3}, {"measurement": "AW972815 expression Mean", "result": 584.452}, {"measurement": "BAG3 NM_004281 expression Mean", "result": 816.89}, {"measurement": "BCL11A NM_022893 expression Mean", "result": 345.798}, {"measurement": "BIRC5 NM_001168 expression Mean", "result": 423.791}, {"measurement": "BTG2 NM_006763 expression Mean", "result": 242.194}, {"measurement": "C9orf6 NM_017832 expression Mean", "result": 227.753}, {"measurement": "C10orf2 NM_021830 expression Mean", "result": 399.327}, {"measurement": "C10orf58 NM_032333 expression Mean", "result": 578.039}, {"measurement": "C16orf93 NM_0010149 expression Mean", "result": 214.657}, {"measurement": "CA2 NM_000067 expression Mean", "result": 486.868}, {"measurement": "CATSPER2 NM_172097 expression Mean", "result": 970.22}, {"measurement": "CAV1 NM_001753 expression Mean", "result": 402.328}, {"measurement": "CCND1 NM_053056 expression Mean", "result": 1996.23}, {"measurement": "CDKN1A NM_000389 expression Mean", "result": 619.606}, {"measurement": "CDX1 NM_001804 expression Mean", "result": 237.199}, {"measurement": "CEACAM1 NM_0010249 expression Mean", "result": 156.04}, {"measurement": "CIRH1A NM_032830 expression Mean", "result": 1424.13}, {"measurement": "CLCF1 NM_013246 expression Mean", "result": 200.181}, {"measurement": "CLDN10 NM_006984 expression Mean", "result": 222.057}, {"measurement": "CNN3 NM_001839 expression Mean", "result": 732.909}, {"measurement": "COL7A1 NM_000094 expression Mean", "result": 746.239}, {"measurement": "COL17A1 NM_000494 expression Mean", "result": 230.283}, {"measurement": "CRABP2 NM_001878 expression Mean", "result": 1011.8}, {"measurement": "CRIPT NM_014171 expression Mean", "result": 325.647}, {"measurement": "CTNNB1 NM_0010982 expression Mean", "result": 258.366}, {"measurement": "CUEDC1 NM_017949 expression Mean", "result": 215.515}, {"measurement": "CXCL14 NM_004887 expression Mean", "result": 194.723}, {"measurement": "CXXC1 NM_014593 expression Mean", "result": 1121.15}, {"measurement": "CXorf40A NM_178124 expression Mean", "result": 203.34}, {"measurement": "CYR61 NM_001554 expression Mean", "result": 338.671}, {"measurement": "DDX51 NM_175066 expression Mean", "result": 1008.46}, {"measurement": "DIMT1L NM_014473 expression Mean", "result": 616.311}, {"measurement": "DUSP5 NM_004419 expression Mean", "result": 1159.02}, {"measurement": "EBI3 NM_005755 expression Mean", "result": 333.316}, {"measurement": "EIF2C2 NM_012154 expression Mean", "result": 367.506}, {"measurement": "ELF3 NM_004433 expression Mean", "result": 204.8}, {"measurement": "ELF4 NM_001421 expression Mean", "result": 365.338}, {"measurement": "EMILIN2 NM_032048 expression Mean", "result": 230.192}, {"measurement": "EOMES NM_005442 expression Mean", "result": 289.321}, {"measurement": "FAM53C NM_016605 expression Mean", "result": 1227.05}, {"measurement": "FAM123B NM_152424 expression Mean", "result": 759.762}, {"measurement": "FLJ40504 NM_173624 expression Mean", "result": 1376.6}, {"measurement": "FOXO3 NM_201559 expression Mean", "result": 274.369}, {"measurement": "GAD1 NM_000817 expression Mean", "result": 204.457}, {"measurement": "GAD1 NM_013445 expression Mean", "result": 246.924}, {"measurement": "GALNAC4S-6 NM_015892 expression Mean", "result": 540.521}, {"measurement": "GEMIN4 NM_015721 expression Mean", "result": 784.75}, {"measurement": "GLIPR2 NM_022343 expression Mean", "result": 227.407}, {"measurement": "GNL3L NM_019067 expression Mean", "result": 289.661}, {"measurement": "GNL3 NM_206826 expression Mean", "result": 1810.36}, {"measurement": "GPATCH4 NM_182679 expression Mean", "result": 927.016}, {"measurement": "GPER NM_0010399 expression Mean", "result": 176.693}, {"measurement": "GPR56 NM_201524 expression Mean", "result": 189.936}, {"measurement": "GPR56 NM_201525 expression Mean", "result": 205.229}, {"measurement": "GPR177 NM_0010022 expression Mean", "result": "158.032 and 231.861"}, {"measurement": "GPR177 NM_024911 expression Mean", "result": 239.092}, {"measurement": "GTF3C6 NM_138408 expression Mean", "result": 454.993}, {"measurement": "H2AFY NM_004893 expression Mean", "result": 843.815}, {"measurement": "HARS NM_002109 expression Mean", "result": 1283.03}, {"measurement": "HCLS1 NM_005335 expression Mean", "result": 494.474}, {"measurement": "HES2 NM_019089 expression Mean", "result": 164.558}, {"measurement": "HSPA1A NM_005346 expression Mean", "result": 348.731}, {"measurement": "HSPA8 NM_006597 expression Mean", "result": 3799.27}, {"measurement": "HSPA8 NM_153201 expression Mean", "result": 4636.48}, {"measurement": "HSPH1 NM_006644 expression Mean", "result": 389.459}, {"measurement": "ID3 NM_002167 expression Mean", "result": 1623.89}, {"measurement": "IER3 NM_003897 expression Mean", "result": 406.859}, {"measurement": "IL2RB NM_000878 expression Mean", "result": 175.269}, {"measurement": "ITPRIP NM_033397 expression Mean", "result": 226.046}, {"measurement": "JTV1 NM_006303 expression Mean", "result": 1336.75}, {"measurement": "KAT2A NM_021078 expression Mean", "result": 704.033}, {"measurement": "KIAA0101 NM_014736 expression Mean", "result": 230.187}, {"measurement": "KRT8 NM_002273 expression Mean", "result": 2758.76}, {"measurement": "LEFTY2 NM_003240 expression Mean", "result": 2484.87}]}
